Test results from patent publication US11040987B2 (TenNor Therapeutics Limited, priority 2019, dated 2021).
Converted amounts (≈) assume the structure as drawn.

How the values were obtained:
Format in all cases: cell-based
[1] = test system: E. faecium ATCC 700221; test: MIC determination, broth microdilution, ESKAPE panel; conditions: Enterococcus faecium, ATCC700221; iron-depleted cation-adjusted Mueller-Hinton broth, 2,2-dipyridyl 160 μM; 37° C., 18-20 hours; read-out: MIC E. faecium ATCC 700221
Procedure: (§1) Minimum inhibitory concentration (MIC) is determined by a broth microdilution method according to the recommendation of the Clinical and Laboratory Standards Institute (CLSI) with minor modification. […] Strains of an ESKAPE panel (E. faecium ATCC 700221, S. aureus ATCC 29213, K. pneumoniae ATCC 43816, A. baumannii ATCC 19606, P. aeruginosa ATCC 27853 and Escherichia coli ATCC 25922) were obtained originally from the American Type Culture Collection (ATCC) and used for MIC determinations of compounds. The bacteria inoculum in the test is […].

[2] = test system: S. aureus ATCC 29213; test: as above; conditions: Staphylococcus aureus, ATCC29213; iron-depleted cation-adjusted Mueller-Hinton broth, 2,2-dipyridyl 160 μM; 37° C., 18-20 hours; read-out: MIC S. aureus ATCC 29213
Procedure: as §1

[3] = test system: K. pneumoniae ATCC 43816; test: as above; conditions: Klebsiella pneumoniae, ATCC43816; iron-depleted cation-adjusted Mueller-Hinton broth, 2,2-dipyridyl 160 μM; 37° C., 18-20 hours; read-out: MIC K. pneumoniae ATCC 43816
Procedure: as §1

[4] = test system: Escherichia coli ATCC 25922; test: as above; conditions: ATCC25922, iron-depleted cation-adjusted Mueller-Hinton broth, 2,2-dipyridyl 160 μM, 37° C., 18-20 hours, read-out: MIC E. coli ATCC 25922
Procedure: as §1

[5] = test system: P. aeruginosa ATCC 27853; test: as above; conditions: Pseudomonas aeruginosa, ATCC27853; iron-depleted cation-adjusted Mueller-Hinton broth, 2,2-dipyridyl 160 μM; 37° C., 18-20 hours; read-out: MIC P. aeruginosa ATCC 27853
Procedure: as §1

[6] = test system: A. baumannii ATCC 19606; test: as above; conditions: Acinetobacter baumannii, ATCC19606; iron-depleted cation-adjusted Mueller-Hinton broth, 2,2-dipyridyl 160 μM; 37° C., 18-20 hours; read-out: MIC A. baumannii ATCC 19606
Procedure: as §1

[7] = test system: A.b TNP 41704; test: MIC against A. baumannii clinical isolates, alone and in combination with antibiotics; conditions: for MIC: Acinetobacter baumannii, TNP41704, Compounds alone, read-out: MIC A.b TNP 41704
[8] = test system: A.b TNP 41709; test: as above; conditions: for MIC: Acinetobacter baumannii, TNP41709, Compounds alone, read-out: MIC A.b TNP 41709
[9] = test system: A.b TNP 41708; test: as above; conditions: for MIC: Acinetobacter baumannii, TNP41708, read-out: MIC A.b TNP 41708
Procedure: as §1

SMILES: C[C@H](NC(=O)c1ccc(O)c(O)c1Cl)C(=O)N/N=C/[C@@]1(C)[C@H](C(=O)O)N2C(=O)C[C@H]2S1(=O)=O [Example 62, (2S,3R,5R)-3-((E)-(2-((S)-2-(2-chloro-3,4-dihydroxybenzamido)propanoyl)hydrazono)methyl)-3-methyl-7-oxo-4-thia-1-azabicyclo[3.2.0]heptane-2-carboxylic acid 4,4-dioxide]
- MIC [1]: > 128 µg/mL
- MIC [2]: 128 µg/mL (≈ 255 µM)
- MIC [3]: > 128 µg/mL
- MIC [4]: > 128 µg/mL
- MIC [5]: > 128 µg/mL
- MIC [6]: 4 µg/mL (≈ 7.95 µM)
- MIC [7]: > 128 µg/mL
- MIC A.b TNP 41704 ([7]; Compounds + meropenem (1:1)): 4 µg/mL
- MIC A.b TNP 41704 ([7]; Compounds + sulbactam (1:1)): 8 µg/mL
- MIC [8]: > 128 µg/mL
- MIC A.b TNP 41709 ([8]; Compounds + meropenem (1:1)): 2 µg/mL
- MIC A.b TNP 41709 ([8]; Compounds + sulbactam (1:1)): 2 µg/mL
- MIC [9]: > 128 µg/mL
- MIC A.b TNP 41708 ([9]; Compounds + meropenem (1:1)): 4 µg/mL
- MIC A.b TNP 41708 ([9]; Compounds + sulbactam (1:1)): 8 µg/mL

SMILES: C[C@]1(/C=N/NC(=O)CCNC(=O)c2ccc(O)c(O)c2)[C@H](C(=O)O)N2C(=O)C[C@H]2S1(=O)=O [Example 67, (2S,3R,5R)-3-((E)-(2-(3-(3,4-dihydroxybenzamido)propanoyl)hydrazono)methyl)-3-methyl-7-oxo-4-thia-1-azabicyclo[3.2.0]heptane-2-carboxylic acid 4,4-dioxide]
- MIC [1]: > 128 µg/mL
- MIC [2]: 128 µg/mL (≈ 273 µM)
- MIC [3]: 128 µg/mL (≈ 273 µM)
- MIC [4]: > 128 µg/mL
- MIC [5]: > 128 µg/mL
- MIC [6]: 4 µg/mL (≈ 8.54 µM)
- MIC [7]: > 128 µg/mL
- MIC A.b TNP 41704 ([7]; Compounds + Imipenem (1:1)): 4 µg/mL
- MIC A.b TNP 41704 ([7]; Compounds + meropenem (1:1)): 4 µg/mL
- MIC A.b TNP 41704 ([7]; Compounds + sulbactam (1:1)): 1 µg/mL
- MIC [8]: > 128 µg/mL
- MIC A.b TNP 41709 ([8]; Compounds + Imipenem (1:1)): 8 µg/mL
- MIC A.b TNP 41709 ([8]; Compounds + meropenem (1:1)): 4 µg/mL
- MIC A.b TNP 41709 ([8]; Compounds + sulbactam (1:1)): 8 µg/mL
- MIC [9]: > 128 µg/mL
- MIC A.b TNP 41708 ([9]; Compounds + Imipenem (1:1)): 4 µg/mL
- MIC A.b TNP 41708 ([9]; Compounds + meropenem (1:1)): 2 µg/mL
- MIC A.b TNP 41708 ([9]; Compounds + sulbactam (1:1)): 8 µg/mL

SMILES: CN(NC(=O)c1ccc(O)c(O)c1)C(=O)OC[C@@]1(C)[C@H](C(=O)O)N2C(=O)C[C@H]2S1(=O)=O [Example 76, (2S,3R,5R)-3-(((2-(3,4-dihydroxybenzoyl)-1-methylhydrazinecarbonyl)oxy)methyl)-3-methyl-7-oxo-4-thia-1-azabicyclo[3.2.0]heptane-2-carboxylic acid 4,4-dioxide]
- MIC [1]: > 128 µg/mL
- MIC [2]: > 128 µg/mL
- MIC [3]: > 128 µg/mL
- MIC [4]: > 128 µg/mL
- MIC [5]: > 128 µg/mL
- MIC [6]: 1 µg/mL (≈ 2.19 µM)
- MIC [7]: > 128 µg/mL
- MIC A.b TNP 41704 ([7]; Compounds + meropenem (1:1)): 16 µg/mL
- MIC A.b TNP 41704 ([7]; Compounds + sulbactam (1:1)): 8 µg/mL
- MIC [8]: > 128 µg/mL
- MIC A.b TNP 41709 ([8]; Compounds + meropenem (1:1)): 16 µg/mL
- MIC A.b TNP 41709 ([8]; Compounds + sulbactam (1:1)): 8 µg/mL
- MIC [9]: > 128 µg/mL
- MIC A.b TNP 41708 ([9]; Compounds + meropenem (1:1)): 32 µg/mL
- MIC A.b TNP 41708 ([9]; Compounds + sulbactam (1:1)): 16 µg/mL

SMILES: CN(NC(=O)OC[C@@]1(C)[C@H](C(=O)O)N2C(=O)C[C@H]2S1(=O)=O)C(=O)c1ccc(O)c(O)c1Cl [Example 77]
- MIC [1]: > 128 µg/mL
- MIC [2]: > 128 µg/mL
- MIC [3]: 16 µg/mL (≈ 32.5 µM)
- MIC [4]: 64 µg/mL (≈ 130 µM)
- MIC [5]: > 128 µg/mL
- MIC [6]: 0.25 µg/mL (≈ 0.508 µM)
- MIC [7]: > 128 µg/mL
- MIC A.b TNP 41704 ([7]; Compounds + meropenem (1:1)): 16 µg/mL
- MIC A.b TNP 41704 ([7]; Compounds + sulbactam (1:1)): 8 µg/mL
- MIC [8]: > 128 µg/mL
- MIC A.b TNP 41709 ([8]; Compounds + meropenem (1:1)): 16 µg/mL
- MIC A.b TNP 41709 ([8]; Compounds + sulbactam (1:1)): 16 µg/mL
- MIC [9]: > 128 µg/mL
- MIC A.b TNP 41708 ([9]; Compounds + meropenem (1:1)): 32 µg/mL
- MIC A.b TNP 41708 ([9]; Compounds + sulbactam (1:1)): 32 µg/mL

SMILES: CN(NC(=O)c1ccc(O)c(O)c1Cl)C(=O)OC[C@@]1(C)[C@H](C(=O)O)N2C(=O)C[C@H]2S1(=O)=O [Example 80, (2S,3R,5R)-3-(((2-(2-chloro-3,4-dihydroxybenzoyl)-1-methylhydrazinecarbonyl)oxy)methyl)-3-methyl-7-oxo-4-thia-1-azabicyclo[3.2.0]heptane-2-carboxylic acid 4,4-dioxide]
- MIC [1]: > 128 µg/mL
- MIC [2]: > 128 µg/mL
- MIC [3]: 16 µg/mL (≈ 32.5 µM)
- MIC [4]: 64 µg/mL (≈ 130 µM)
- MIC [5]: > 128 µg/mL
- MIC [6]: 0.25 µg/mL (≈ 0.508 µM)
- MIC [7]: > 128 µg/mL
- MIC A.b TNP 41704 ([7]; Compounds + meropenem (1:1)): 16 µg/mL
- MIC A.b TNP 41704 ([7]; Compounds + sulbactam (1:1)): 4 µg/mL
- MIC [8]: > 128 µg/mL
- MIC A.b TNP 41709 ([8]; Compounds + meropenem (1:1)): 32 µg/mL
- MIC A.b TNP 41709 ([8]; Compounds + sulbactam (1:1)): 8 µg/mL
- MIC [9]: > 128 µg/mL
- MIC A.b TNP 41708 ([9]; Compounds + meropenem (1:1)): 64 µg/mL
- MIC A.b TNP 41708 ([9]; Compounds + sulbactam (1:1)): 32 µg/mL

SMILES: C[C@]1(c2cc(C(=O)c3ccc(O)c(O)c3)on2)[C@H](C(=O)O)N2C(=O)C[C@H]2S1(=O)=O [Example 112, (2S,3R,5R)-3-(5-(3,4-dihydroxybenzoyl)isoxazol-3-yl)-3-methyl-7-oxo-4-thia-1-azabicyclo[3.2.0]heptane-2-carboxylic acid 4,4-dioxide]
- MIC [1]: > 64 µg/mL
- MIC [2]: > 64 µg/mL
- MIC [3]: > 64 µg/mL
- MIC [4]: > 64 µg/mL
- MIC [5]: > 64 µg/mL
- MIC [6]: 32 µg/mL (≈ 75.8 µM)
- MIC [7]: > 64 µg/mL
- MIC A.b TNP 41704 ([7]; Compounds + meropenem (1:1)): 16 µg/mL
- MIC A.b TNP 41704 ([7]; Compounds + sulbactam (1:1)): 2 µg/mL
- MIC [8]: > 64 µg/mL
- MIC A.b TNP 41709 ([8]; Compounds + meropenem (1:1)): 8 µg/mL
- MIC A.b TNP 41709 ([8]; Compounds + sulbactam (1:1)): 2 µg/mL
- MIC [9]: > 64 µg/mL
- MIC A.b TNP 41708 ([9]; Compounds + meropenem (1:1)): 16 µg/mL
- MIC A.b TNP 41708 ([9]; Compounds + sulbactam (1:1)): 8 µg/mL

SMILES: C[C@]1(COC(=O)c2ccc(O)c(O)c2Cl)[C@H](C(=O)O)N2C(=O)C[C@H]2S1(=O)=O [Example 114, (2S,3R,5R)-3-(((2-chloro-3,4-dihydroxybenzoyl)oxy)methyl)-3-methyl-7-oxo-4-thia-1-azabicyclo[3.2.0]heptane-2-carboxylic acid 4,4-dioxide]
- MIC [1]: > 128 µg/mL
- MIC [2]: 16 µg/mL (≈ 38.1 µM)
- MIC [3]: 2 µg/mL (≈ 4.76 µM)
- MIC [4]: 8 µg/mL (≈ 19.1 µM)
- MIC [5]: > 128 µg/mL
- MIC [6]: < 0.06 µg/mL
- MIC [7]: > 128 µg/mL
- MIC A.b TNP 41704 ([7]; Compounds + meropenem (1:1)): 64 µg/mL
- MIC A.b TNP 41704 ([7]; Compounds + sulbactam (1:1)): 8 µg/mL
- MIC [8]: > 128 µg/mL
- MIC A.b TNP 41709 ([8]; Compounds + meropenem (1:1)): 64 µg/mL
- MIC A.b TNP 41709 ([8]; Compounds + sulbactam (1:1)): 16 µg/mL
- MIC [9]: > 128 µg/mL
- MIC A.b TNP 41708 ([9]; Compounds + meropenem (1:1)): 64 µg/mL
- MIC A.b TNP 41708 ([9]; Compounds + sulbactam (1:1)): 32 µg/mL

SMILES: C[C@]1(CNc2ccc(O)c(O)c2)[C@H](C(=O)O)N2C(=O)C[C@H]2S1(=O)=O [Example 117, (2S,3S,5R)-3-(((3,4-dihydroxyphenyl)amino)methyl)-3-methyl-7-oxo-4-thia-1-azabicyclo[3.2.0]heptane-2-carboxylic acid 4,4-dioxide]
- MIC [1]: > 128 µg/mL
- MIC [2]: > 128 µg/mL
- MIC [3]: > 128 µg/mL
- MIC [4]: > 128 µg/mL
- MIC [5]: > 128 µg/mL
- MIC [6]: 4 µg/mL (≈ 11.2 µM)
- MIC [7]: 64 µg/mL
- MIC A.b TNP 41704 ([7]; Compounds + meropenem (1:1)): 8 µg/mL
- MIC A.b TNP 41704 ([7]; Compounds + sulbactam (1:1)): 4 µg/mL
- MIC [8]: 64 µg/mL
- MIC A.b TNP 41709 ([8]; Compounds + meropenem (1:1)): 8 µg/mL
- MIC A.b TNP 41709 ([8]; Compounds + sulbactam (1:1)): 4 µg/mL
- MIC [9]: 128 µg/mL
- MIC A.b TNP 41708 ([9]; Compounds + meropenem (1:1)): 8 µg/mL
- MIC A.b TNP 41708 ([9]; Compounds + sulbactam (1:1)): 4 µg/mL
